Legend:
[1] = target: Beta-1 adrenergic receptor (Homo sapiens, UniProt P08588); experiment: Displacement of [3H]CGP12177 from human recombinant beta1 adrenergic receptor expressed in HEK293 cell membranes after 90 mins by beta counting method
[2] = target: Sodium-dependent serotonin transporter (Rattus norvegicus, UniProt P31652); experiment: Displacement of [3H]-citalopram from SERT in Sprague-Dawley rat midbrain after 60 mins by scintillation counting method
D(3) dopamine receptor = D(3) dopamine receptor (Homo sapiens, UniProt P35462); experiment: Displacement of [3H]N-methylspiperone from human dopamine D3 receptor expressed in HEK293 cell membranes after 1 hr by scintillation counting method
[3] = target: T1, Alpha-1B adrenergic receptor (Homo sapiens, UniProt P35368); experiment: Displacement of [3H]prazosin from human recombinant alpha-1B adrenergic receptor expressed in CHO cell membranes after 30 mins by liquid scintillation counting method
T1 sequence (P35368 whole entry): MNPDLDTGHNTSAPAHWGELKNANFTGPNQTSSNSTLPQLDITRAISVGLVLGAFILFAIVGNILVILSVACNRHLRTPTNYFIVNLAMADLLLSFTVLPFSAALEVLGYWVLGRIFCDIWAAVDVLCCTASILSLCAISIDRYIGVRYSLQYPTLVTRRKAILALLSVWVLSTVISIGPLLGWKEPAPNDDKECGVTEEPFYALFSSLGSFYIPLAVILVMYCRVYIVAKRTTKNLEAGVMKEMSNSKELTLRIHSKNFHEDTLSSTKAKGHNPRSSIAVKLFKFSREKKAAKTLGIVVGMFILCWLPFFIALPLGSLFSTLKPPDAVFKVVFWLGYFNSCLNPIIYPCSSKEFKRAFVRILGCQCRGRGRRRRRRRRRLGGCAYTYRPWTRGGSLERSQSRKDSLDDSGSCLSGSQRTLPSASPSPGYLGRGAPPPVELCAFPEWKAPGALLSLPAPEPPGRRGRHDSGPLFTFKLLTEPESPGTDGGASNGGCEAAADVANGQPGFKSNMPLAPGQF

D(4) dopamine receptor [4] = target: T2, D(4) dopamine receptor (Homo sapiens, UniProt P21917); experiment: Antagonist activity at human SP/Myc epitope-tagged dopamine D4 receptor expressed in HEK293T cells assessed as inhibition of dopamine-induced RLuc8-fused Galphai1 activation preincubated for 15 mins followed by dopamine induction measured after 2 mins by BRET assay; format: cell-based, HEK-293T
T2 sequence (P21917 whole entry): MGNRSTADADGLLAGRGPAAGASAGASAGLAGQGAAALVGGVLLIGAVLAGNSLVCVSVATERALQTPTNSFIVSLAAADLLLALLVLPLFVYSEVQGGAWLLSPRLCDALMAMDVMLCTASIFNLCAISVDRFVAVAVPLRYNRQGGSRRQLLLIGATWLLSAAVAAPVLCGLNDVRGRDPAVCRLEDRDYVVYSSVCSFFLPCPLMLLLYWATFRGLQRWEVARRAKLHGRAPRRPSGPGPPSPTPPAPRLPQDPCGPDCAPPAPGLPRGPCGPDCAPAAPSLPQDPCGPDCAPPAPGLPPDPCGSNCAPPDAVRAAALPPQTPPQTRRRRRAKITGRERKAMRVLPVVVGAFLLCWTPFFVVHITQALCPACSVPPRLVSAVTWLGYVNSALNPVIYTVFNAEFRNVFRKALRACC

Homo sapiens = species: Homo sapiens; experiment: Selectivity ratio of Ki for human dopamine D2 receptor to Ki for human dopamine D4 receptor
D(2) dopamine receptor = D(2) dopamine receptor (Homo sapiens, UniProt P14416); experiment: Displacement of [3H]N-methylspiperone from human dopamine D2 receptor expressed in HEK293 cell membranes after 1 hr by scintillation counting method
[5] = target: T3, Alpha-1D adrenergic receptor (Homo sapiens, UniProt P25100); experiment: Displacement of [3H]prazosin from human recombinant alpha-1D adrenergic receptor expressed in CHO cell membranes after 30 mins by liquid scintillation counting method
T3 sequence (P25100 whole entry): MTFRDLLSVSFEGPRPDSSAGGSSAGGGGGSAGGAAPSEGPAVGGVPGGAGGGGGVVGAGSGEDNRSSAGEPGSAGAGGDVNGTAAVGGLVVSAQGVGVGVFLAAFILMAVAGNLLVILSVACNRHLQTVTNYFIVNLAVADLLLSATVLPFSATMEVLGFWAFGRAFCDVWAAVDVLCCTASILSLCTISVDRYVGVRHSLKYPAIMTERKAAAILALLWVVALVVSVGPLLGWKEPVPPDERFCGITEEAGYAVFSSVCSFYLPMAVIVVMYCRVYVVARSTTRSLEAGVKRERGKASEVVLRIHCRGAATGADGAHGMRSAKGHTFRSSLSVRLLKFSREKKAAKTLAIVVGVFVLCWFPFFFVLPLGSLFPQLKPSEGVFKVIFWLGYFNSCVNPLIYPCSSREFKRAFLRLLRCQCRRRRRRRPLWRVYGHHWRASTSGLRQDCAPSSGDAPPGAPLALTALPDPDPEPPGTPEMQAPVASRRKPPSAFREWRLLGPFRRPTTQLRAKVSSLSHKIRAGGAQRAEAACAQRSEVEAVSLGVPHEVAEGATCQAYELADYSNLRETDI

[6] = target: T4, Alpha-1A adrenergic receptor (Homo sapiens, UniProt P35348); experiment: Displacement of [3H]prazosin from human recombinant alpha-1A adrenergic receptor expressed in CHO cell membranes after 30 mins by liquid scintillation counting method
T4 sequence (P35348 whole entry): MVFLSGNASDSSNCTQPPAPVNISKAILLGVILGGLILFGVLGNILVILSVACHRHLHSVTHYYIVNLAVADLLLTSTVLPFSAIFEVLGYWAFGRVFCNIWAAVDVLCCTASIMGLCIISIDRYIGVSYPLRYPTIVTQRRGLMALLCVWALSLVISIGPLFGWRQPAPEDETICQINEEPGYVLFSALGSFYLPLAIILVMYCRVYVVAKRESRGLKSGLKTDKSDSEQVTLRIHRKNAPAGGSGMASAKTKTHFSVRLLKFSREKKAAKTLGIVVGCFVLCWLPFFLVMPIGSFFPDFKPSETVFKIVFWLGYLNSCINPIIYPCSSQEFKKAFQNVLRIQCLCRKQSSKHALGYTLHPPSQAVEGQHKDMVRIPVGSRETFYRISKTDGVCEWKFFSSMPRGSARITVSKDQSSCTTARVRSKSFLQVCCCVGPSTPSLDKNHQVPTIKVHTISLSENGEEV

[7] = target: Beta-2 adrenergic receptor (Homo sapiens, UniProt P07550); experiment: Displacement of [3H]CGP12177 from human recombinant beta2 adrenergic receptor expressed in HEK293 cell membranes after 90 mins by beta counting method
[8] = target: Sigma non-opioid intracellular receptor 1 (Cavia porcellus, UniProt Q60492); experiment: Displacement of [3H](+)-pentazocine from sigma1 receptor in Hartley guinea pig brain cortex after 120 mins by scintillation counting method
D(4) dopamine receptor [9] = target: T2, D(4) dopamine receptor; experiment: Displacement of [3H]N-methylspiperone from human dopamine D4 receptor expressed in HEK293 cell membranes after 1 hr by scintillation counting method
[10] = target: Sodium-dependent dopamine transporter (Rattus norvegicus, UniProt P23977); experiment: Displacement of [3H]WIN 35,428 from DAT in Sprague-Dawley rat striatum after 120 mins by scintillation counting method
D(4) dopamine receptor [11] = target: T2, D(4) dopamine receptor; experiment: Antagonist activity at human SP/Myc epitope-tagged dopamine D4 receptor expressed in HEK293T cells assessed as inhibition of dopamine-induced mVenus-fused beta-arrestin2 recruitment preincubated for 15 mins followed by dopamine induction measured after 2 mins by BRET assay; format: cell-based, HEK-293T
[12] = target: T5, Muscarinic acetylcholine receptor M4 (Homo sapiens) (UniProt P08173); experiment: Antagonist activity at human SP/Myc epitope-tagged muscarinic M4 receptor expressed in HEK293T cells assessed as inhibition of carbachol-induced RLuc8-fused Galphaq activation preincubated for 15 mins followed by carbachol induction measured after 2 mins by BRET assay; format: cell-based; conditions: HEK-293T
T5 sequence (whole entry): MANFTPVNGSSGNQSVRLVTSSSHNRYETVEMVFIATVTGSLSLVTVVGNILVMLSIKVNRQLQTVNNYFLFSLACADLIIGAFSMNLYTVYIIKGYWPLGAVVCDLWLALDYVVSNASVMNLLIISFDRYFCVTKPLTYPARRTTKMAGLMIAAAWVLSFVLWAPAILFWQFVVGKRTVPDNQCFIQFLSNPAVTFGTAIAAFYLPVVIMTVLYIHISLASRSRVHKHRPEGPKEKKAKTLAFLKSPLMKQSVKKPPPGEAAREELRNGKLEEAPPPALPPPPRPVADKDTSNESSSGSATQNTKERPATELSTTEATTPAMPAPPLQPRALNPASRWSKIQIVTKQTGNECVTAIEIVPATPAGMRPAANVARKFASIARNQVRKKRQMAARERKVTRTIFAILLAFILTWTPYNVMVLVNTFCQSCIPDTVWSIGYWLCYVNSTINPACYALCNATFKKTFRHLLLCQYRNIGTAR

[13] = target: T6, Muscarinic acetylcholine receptor M1 (Homo sapiens) (UniProt P11229); experiment: Antagonist activity at human SP/Myc epitope-tagged muscarinic M1 receptor expressed in HEK293T cells assessed as inhibition of carbachol-induced mVenus-fused beta-arrestin2 recruitment preincubated for 15 mins followed by carbachol induction measured after 2 mins by BRET assay; format: cell-based; conditions: HEK-293T
T6 sequence (whole entry): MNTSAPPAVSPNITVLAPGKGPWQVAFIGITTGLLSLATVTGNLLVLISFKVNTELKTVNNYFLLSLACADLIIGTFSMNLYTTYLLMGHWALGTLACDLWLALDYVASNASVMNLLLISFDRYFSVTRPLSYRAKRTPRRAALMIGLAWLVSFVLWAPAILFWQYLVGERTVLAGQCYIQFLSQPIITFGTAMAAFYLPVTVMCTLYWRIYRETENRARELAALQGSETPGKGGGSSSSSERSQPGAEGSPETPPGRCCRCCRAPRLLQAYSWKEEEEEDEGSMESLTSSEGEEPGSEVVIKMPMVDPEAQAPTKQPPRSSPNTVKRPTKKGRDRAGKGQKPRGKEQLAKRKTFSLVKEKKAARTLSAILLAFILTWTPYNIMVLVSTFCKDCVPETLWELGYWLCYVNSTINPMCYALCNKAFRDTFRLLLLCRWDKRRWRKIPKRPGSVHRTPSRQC

[14] = target: T6, Muscarinic acetylcholine receptor M1 (Homo sapiens); experiment: Antagonist activity at human SP/Myc epitope-tagged muscarinic M1 receptor expressed in HEK293T cells assessed as inhibition of carbachol-induced RLuc8-fused Galphaq activation preincubated for 15 mins followed by carbachol induction measured after 2 mins by BRET assay; format: cell-based; conditions: HEK-293T
[15] = target: T5, Muscarinic acetylcholine receptor M4 (Homo sapiens); experiment: Antagonist activity at human SP/Myc epitope-tagged muscarinic M4 receptor expressed in HEK293T cells assessed as inhibition of carbachol-induced mVenus-fused beta-arrestin2 recruitment preincubated for 15 mins followed by carbachol induction measured after 2 mins by BRET assay; format: cell-based; conditions: HEK-293T

Chain of D(3) dopamine receptor (P35462 whole entry): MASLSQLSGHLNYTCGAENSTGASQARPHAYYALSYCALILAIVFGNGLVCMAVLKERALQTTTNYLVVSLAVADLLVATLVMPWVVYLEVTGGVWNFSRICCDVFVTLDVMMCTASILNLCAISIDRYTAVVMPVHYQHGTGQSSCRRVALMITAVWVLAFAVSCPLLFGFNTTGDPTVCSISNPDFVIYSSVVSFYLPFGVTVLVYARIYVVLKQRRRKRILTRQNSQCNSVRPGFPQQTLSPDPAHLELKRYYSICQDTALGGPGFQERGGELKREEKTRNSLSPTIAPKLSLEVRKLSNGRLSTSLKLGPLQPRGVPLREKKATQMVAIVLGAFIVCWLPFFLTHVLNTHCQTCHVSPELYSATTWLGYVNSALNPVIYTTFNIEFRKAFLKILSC
Chain of Sodium-dependent dopamine transporter (P23977 whole entry, the tested form may be a part): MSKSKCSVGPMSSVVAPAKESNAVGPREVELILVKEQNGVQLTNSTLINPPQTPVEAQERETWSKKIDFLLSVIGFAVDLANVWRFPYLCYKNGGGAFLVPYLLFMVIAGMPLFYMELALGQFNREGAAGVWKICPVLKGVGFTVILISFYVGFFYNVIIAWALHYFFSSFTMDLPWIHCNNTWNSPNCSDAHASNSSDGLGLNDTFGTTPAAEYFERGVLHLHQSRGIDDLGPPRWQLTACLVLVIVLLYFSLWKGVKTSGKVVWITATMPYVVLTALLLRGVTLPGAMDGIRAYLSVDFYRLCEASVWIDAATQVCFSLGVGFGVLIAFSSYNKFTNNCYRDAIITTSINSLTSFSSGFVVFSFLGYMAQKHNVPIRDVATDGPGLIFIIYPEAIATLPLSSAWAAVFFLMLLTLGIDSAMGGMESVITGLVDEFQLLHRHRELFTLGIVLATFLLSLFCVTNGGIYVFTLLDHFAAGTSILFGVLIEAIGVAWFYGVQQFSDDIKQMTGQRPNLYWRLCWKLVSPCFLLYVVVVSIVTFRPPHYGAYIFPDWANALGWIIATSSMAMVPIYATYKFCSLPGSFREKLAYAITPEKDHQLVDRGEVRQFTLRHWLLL
Chain of D(2) dopamine receptor (P14416 whole entry): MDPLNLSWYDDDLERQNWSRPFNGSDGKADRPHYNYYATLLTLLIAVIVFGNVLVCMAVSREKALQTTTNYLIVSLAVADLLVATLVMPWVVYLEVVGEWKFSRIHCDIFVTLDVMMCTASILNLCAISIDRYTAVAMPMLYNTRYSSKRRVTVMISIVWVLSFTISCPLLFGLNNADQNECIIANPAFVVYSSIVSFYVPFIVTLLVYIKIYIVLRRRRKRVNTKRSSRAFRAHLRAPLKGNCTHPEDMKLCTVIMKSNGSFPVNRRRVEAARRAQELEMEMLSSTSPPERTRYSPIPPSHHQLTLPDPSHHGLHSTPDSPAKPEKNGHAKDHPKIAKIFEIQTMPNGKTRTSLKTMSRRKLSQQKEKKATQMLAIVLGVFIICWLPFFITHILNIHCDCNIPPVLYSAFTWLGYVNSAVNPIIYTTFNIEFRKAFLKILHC
Chain of Beta-2 adrenergic receptor (P07550 whole entry): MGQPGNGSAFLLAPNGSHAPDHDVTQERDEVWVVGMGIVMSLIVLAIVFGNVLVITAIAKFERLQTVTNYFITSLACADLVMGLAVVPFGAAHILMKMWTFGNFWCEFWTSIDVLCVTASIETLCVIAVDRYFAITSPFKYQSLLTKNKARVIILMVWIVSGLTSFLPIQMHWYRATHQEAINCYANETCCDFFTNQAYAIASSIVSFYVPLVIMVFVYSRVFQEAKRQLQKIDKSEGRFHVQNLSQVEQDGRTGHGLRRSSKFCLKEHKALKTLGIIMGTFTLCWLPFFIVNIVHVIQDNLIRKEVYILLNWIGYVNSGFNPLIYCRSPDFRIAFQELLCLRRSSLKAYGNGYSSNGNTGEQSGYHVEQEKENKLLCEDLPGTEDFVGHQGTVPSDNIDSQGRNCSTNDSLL
Chain of Sodium-dependent serotonin transporter (P31652 whole entry): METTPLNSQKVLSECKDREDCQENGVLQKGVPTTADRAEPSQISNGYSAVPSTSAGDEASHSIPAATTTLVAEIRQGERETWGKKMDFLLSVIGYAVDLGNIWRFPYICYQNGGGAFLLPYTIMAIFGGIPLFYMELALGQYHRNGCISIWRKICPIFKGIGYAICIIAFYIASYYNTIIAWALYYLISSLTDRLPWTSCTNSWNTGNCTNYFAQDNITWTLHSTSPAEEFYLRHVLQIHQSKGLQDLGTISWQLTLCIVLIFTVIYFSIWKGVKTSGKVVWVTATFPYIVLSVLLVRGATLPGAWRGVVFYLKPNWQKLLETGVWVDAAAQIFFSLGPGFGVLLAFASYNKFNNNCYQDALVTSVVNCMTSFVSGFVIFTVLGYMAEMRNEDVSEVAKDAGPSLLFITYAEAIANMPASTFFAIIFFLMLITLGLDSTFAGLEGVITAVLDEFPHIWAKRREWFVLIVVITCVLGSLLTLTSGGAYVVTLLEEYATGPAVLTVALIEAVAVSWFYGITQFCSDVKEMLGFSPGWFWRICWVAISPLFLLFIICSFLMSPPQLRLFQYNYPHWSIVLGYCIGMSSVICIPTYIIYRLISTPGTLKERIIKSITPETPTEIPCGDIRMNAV
Chain of Beta-1 adrenergic receptor (P08588 whole entry): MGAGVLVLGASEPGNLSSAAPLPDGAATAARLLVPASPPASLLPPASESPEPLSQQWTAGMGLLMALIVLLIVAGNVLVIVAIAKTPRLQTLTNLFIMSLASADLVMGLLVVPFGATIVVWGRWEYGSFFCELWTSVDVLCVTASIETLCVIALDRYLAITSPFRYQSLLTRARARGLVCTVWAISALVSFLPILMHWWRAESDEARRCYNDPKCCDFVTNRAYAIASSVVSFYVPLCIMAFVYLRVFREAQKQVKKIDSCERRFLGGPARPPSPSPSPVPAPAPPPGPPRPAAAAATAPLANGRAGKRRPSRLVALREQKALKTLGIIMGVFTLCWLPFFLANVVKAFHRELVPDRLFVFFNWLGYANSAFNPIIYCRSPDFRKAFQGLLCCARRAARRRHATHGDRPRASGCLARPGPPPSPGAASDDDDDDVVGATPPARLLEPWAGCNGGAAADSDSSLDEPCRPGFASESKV
Chain of Sigma non-opioid intracellular receptor 1 (Q60492 whole entry): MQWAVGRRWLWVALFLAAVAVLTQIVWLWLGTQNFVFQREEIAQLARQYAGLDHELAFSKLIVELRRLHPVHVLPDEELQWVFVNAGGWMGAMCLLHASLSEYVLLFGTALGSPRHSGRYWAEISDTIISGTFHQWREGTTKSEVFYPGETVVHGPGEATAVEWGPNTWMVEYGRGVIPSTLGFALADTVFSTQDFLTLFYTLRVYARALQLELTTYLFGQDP

Ki [1]	Ki [2]	Ki (D(3) dopamine receptor)	Ki [3]	IC50 (D(4) dopamine receptor [4])	Ratio Ki (Homo sapiens)	Ki (D(2) dopamine receptor)	Ki [5]	Ki [6]	Ki [7]	Ki [8]	Ki (D(4) dopamine receptor [9])	Ki [10]	IC50 (D(4) dopamine receptor [11])	Compound	Imax [12]	Imax [13]	Imax [14]	Imax [15]
47900 nM	8910 nM	617 nM	776 nM	117 nM	691	676 nM	1000 nM	437 nM	43700 nM	7.24 nM	0.977 nM	3390 nM	6.03 nM	CCCCC1CCN(CCCN2C(=O)CCc3ccccc32)CC1	–	–	–	–
–	–	–	–	–	–	–	–	–	–	–	–	–	–	CN1[C@@H]2C[C@@H](OC(=O)[C@H](CO)c3ccccc3)C[C@H]1[C@@H]1O[C@H]12	79%	76%	71%	73%

Source: ChEMBL document CHEMBL4043296 (J Med Chem, 2018)
